{"source": "ChEMBL document CHEMBL1124314", "about": "“Development of phosphonate derivatives of gadolinium chelates for NMR imaging of calcified soft tissues” (J Med Chem, 1989)", "key": {"[1]": {"test": "Ratio of uptake of [GD] in bone 1 hr post injection with 0.02 to that of muscle", "assay_type": "functional"}, "[2]": {"test": "Ratio of uptake of [GD] in bone 1 hr post injection with 0.005 to that of blood", "assay_type": "functional"}, "[3]": {"test": "Ratio of uptake of [GD] in bone 1 hr post injection with 0.20 to that of muscle", "assay_type": "functional"}, "Rattus norvegicus [4]": {"species_on_record": "Rattus norvegicus", "test": "Uptake of [GD] in bone 1 hr post injection with 0.05 of the compound", "assay_type": "functional, Bone element"}, "Rattus norvegicus [5]": {"species_on_record": "Rattus norvegicus", "test": "Uptake of [GD] in bone 1 hr post injection with 0.20 of the compound", "assay_type": "functional, Bone element"}, "Rattus norvegicus [6]": {"species_on_record": "Rattus norvegicus", "test": "Uptake of [GD] in bone 1 hr post injection with 0.02 of the compound", "assay_type": "functional, Bone element"}, "[7]": {"test": "Ratio of uptake of [GD] in bone 1 hr post injection with 0.20 to that of blood", "assay_type": "functional"}, "[8]": {"test": "Uptake of [GD] in bone 1 hr post injection with NCA GD dose to that of muscle", "assay_type": "functional, Muscle tissue"}, "[9]": {"test": "Ratio of uptake of [GD] in bone 1 hr post injection with 0.10 to that of muscle", "assay_type": "functional"}, "Rattus norvegicus [10]": {"species_on_record": "Rattus norvegicus", "test": "Uptake of [GD] in bone 1 hr post injection with 0.005 of the compound", "assay_type": "functional, Bone element"}, "[11]": {"test": "Ratio of uptake of [GD] in bone 1 hr post injection with 0.005 to that of muscle", "assay_type": "functional"}, "Rattus norvegicus [12]": {"species_on_record": "Rattus norvegicus", "test": "Uptake of [GD] in bone 1 hr post injection with 0.10 of the compound", "assay_type": "functional, Bone element"}, "[13]": {"test": "Ratio of uptake of [GD] in bone 1 hr post injection with 0.05 to that of muscle", "assay_type": "functional"}, "[14]": {"test": "Ratio of uptake of [GD] in bone 1 hr post injection with NCA GD dose to that of blood", "assay_type": "functional"}, "[15]": {"test": "Ratio of uptake of [GD] in bone 1 hr post injection with 0.05 to that of blood", "assay_type": "functional"}, "[16]": {"test": "Ratio of uptake of [GD] in bone 1 hr post injection with 0.02 to that of blood", "assay_type": "functional"}, "[17]": {"test": "Ratio of uptake of [GD] in bone 1 hr post injection with 0.10 to that of blood", "assay_type": "functional"}, "Rattus norvegicus [18]": {"species_on_record": "Rattus norvegicus", "test": "Uptake of [GD] in bone 1 hr post injection with NCA GD dose", "assay_type": "functional, Bone element"}}, "data": [{"molecule": "O=C(O)CN(CCN(CC(=O)O)CC(=O)O)CCN(CC(=O)O)CC(=O)NCCC(O)P(=O)(O)OP(=O)(O)O", "note": "(stereo not drawn)", "values": [{"measurement": "Ratio", "setting": "[1]", "value": 20.1}, {"measurement": "Ratio", "setting": "[2]", "value": 110.4}, {"measurement": "Ratio", "setting": "[3]", "value": 8.08}, {"measurement": "ID", "setting": "Rattus norvegicus [4]", "value": 21.2, "unit": "%"}, {"measurement": "ID", "setting": "Rattus norvegicus [5]", "value": 13.5, "unit": "%"}, {"measurement": "ID", "setting": "Rattus norvegicus [6]", "value": 28.9, "unit": "%"}, {"measurement": "Ratio", "setting": "[7]", "value": 13.9}, {"measurement": "Ratio", "setting": "[8]", "value": 70.6}, {"measurement": "Ratio", "setting": "[9]", "value": 12.5}, {"measurement": "ID", "setting": "Rattus norvegicus [10]", "value": 44.4, "unit": "%"}, {"measurement": "Ratio", "setting": "[11]", "value": 52.7}, {"measurement": "ID", "setting": "Rattus norvegicus [12]", "value": 16.1, "unit": "%"}, {"measurement": "Ratio", "setting": "[13]", "value": 19.6}, {"measurement": "Ratio", "setting": "[14]", "value": 108}, {"measurement": "Ratio", "setting": "[15]", "value": 29.8}, {"measurement": "Ratio", "setting": "[16]", "value": 34.9}, {"measurement": "Ratio", "setting": "[17]", "value": 25.7}, {"measurement": "ID", "setting": "Rattus norvegicus [18]", "value": 57, "unit": "%"}]}]}
